# Measurements from a melting point compilation (Tetko et al.; mined from patent text by program, amines drawn as free bases though some values may be those of a salt).
row,SMILES,melting point [°C]
1,O=C1C2CCCCN2C(=O)N1c1ccccc1 (stereo unspecified),186 to 187
2,Cc1nc(-c2ccc(OC(C)C)c([N+](=O)[O-])c2)sc1C(=O)O,211 to 213
3,C=CCc1cc(C#N)ccc1O,70
4,Nc1cccc(-c2ccc(CCNCc3cccc(Cl)c3)c3ccccc23)n1,60 to 75
5,COCC(C(=O)O)N(CCN(CC(=O)O)C(COC)C(=O)O)CC(=O)O (stereo unspecified),215
6,O=Cc1ccc(-c2ccc(C(=O)O)cc2)c([N+](=O)[O-])c1,227 to 235
7,COC(=O)c1ccccc1S(=O)(=O)Cc1c(O[C@H](Cn2ccnc2)c2ccccc2)ccc2c1CCCC2=O,203 to 205
8,CCSc1cc(O)c(C#N)s1,105
9,CN1Cc2c(C(N)=O)ncn2-c2sccc2C1=O,> 250
10,Cc1ccc(-c2ccc(/C=C/C(=O)O)o2)cc1,183 to 184
11,Cc1ccc(NC(=O)c2cc(C#N)cc(C)n2)nc1,196
12,N#Cc1sc2ccccc2c1Cl,124 to 125
13,CCCCC1=CC(O)(C(Br)Br)N(c2ccccc2)C1=O (stereo unspecified),96 to 98
14,N#CC=Cc1ccc(Cl)cc1C(=O)c1ccccc1,89 to 91
15,Cc1cc(C(=O)O)c(NC(=O)C(C)C)s1,160 to 162
16,CONC(=O)Nc1ccc(-c2sc3c(c2CN(C)C(C)c2ccccc2)c(=O)n(-c2ccc(F)cn2)c(=O)n3Cc2c(F)cccc2F)cc1 (stereo unspecified),128 to 130
17,CCCOc1ccc(S(=O)(=O)N2CCN(CC)CC2)cc1-c1nc2cc3nc[nH]c3cc2c(=O)[nH]1,194 to 196
18,O=C(O)c1ccc(C(c2cc(F)ccc2F)S(=O)(=O)c2ccc(Cl)cc2)nc1 (stereo unspecified),> 230
19,O=c1occ(CSc2ccc(F)cc2)o1,57 to 59
20,COC(=O)c1cc2ccccc2n1-c1ccccn1,158 to 159
21,COc1cc(C=CC(C)=O)ccc1OCC1CO1 (stereo unspecified),123 to 124
22,CCCCCCCNc1ccncc1,50 to 52

row,SMILES,melting point [°C]
1,CCOC(=O)Cc1c(C(F)(F)F)c2ccc(O)cc2oc1=O,112 to 114
2,Cc1ccc(C(=O)n2c3c(c4cc(C)ccc42)CC(C(=O)O)CC3)cc1 (stereo unspecified),200 to 203
3,CN(C)C(=S)SC(C[N+](=O)[O-])c1ccc(Cl)cc1Cl (stereo unspecified),127 to 128
4,COC(=O)c1cc(N)c(N(C)C(C)=O)c(N)c1,120
5,CCOC(=O)c1c(O)c2cnc(N3CCCC3)nc2n(C)c1=O,174 to 177
6,Cc1[nH]c(C(=O)NCc2ccc(Cl)c(Cl)c2)c(C)c1-c1nc2ccc(C(=O)c3ccccc3)cc2[nH]1,141 to 143
7,CC1(CCSc2nc3ccccc3o2)Cn2cc([N+](=O)[O-])nc2O1 (stereo unspecified),174 to 175
8,CNC(C(=O)NC(N)=O)C(=S)c1cccc2c(C(F)(F)F)c(OC)ccc12 (stereo unspecified),203 to 204
9,CCCc1nc2c(N)nc3ccccc3c2n1CCCCCC(=O)NC,158 to 159
10,Nc1cccc(C(=O)Nc2nccn(-c3ccccc3)c2=O)c1,> 250
11,COc1cc(C)c(/C=C/c2nc3c([nH]2)c(=O)n(C)c(=O)n3C)cc1C,> 280
12,COc1ccc(-c2c3c(cc4ccc5c(c24)OCO5)C(=O)NC3)cc1,266 to 269
13,O=C(c1ccccc1)c1cc(Cl)ccc1N=C=S,63 to 65
14,CCN(CC)C(=O)CCCOc1ccc(Oc2ccccc2)cc1,73 to 74
15,OCc1cccc(-n2cccc2)c1Br,78 to 80
16,CCCc1c(OCCCOc2cc([N+](=O)[O-])c(Cl)cc2C)ccc(C(C)=O)c1O,113 to 115
17,CCCCCCn1cnc(NC)c1C(=O)NCCCCCCOc1ccc(Cl)cc1,55 to 56
18,CS(=O)(=O)n1cnc2cc(Cl)c(Cl)cc21,191 to 193
19,CC(C(=O)O)c1ccc2c(c1)C(=O)c1ccc(Cl)cc1CS2 (stereo unspecified),137 to 138
20,CC(C)(C)OC(=O)N1CCC(OCc2ccccc2)C1CC(O)Cn1cnc2ccncc2c1=O (stereo unspecified),221
21,CN(CC(=O)O)C(=O)CN1CCCC1=O,178
22,COC(CCOc1cc(C)ccc1C)C(C)(C)C(=O)O (stereo unspecified),76 to 77

row,SMILES,melting point [°C]
1,COC(=O)c1cc(C(=O)OC)cc(N(C)C)c1,118 to 121
2,Cn1cncc1Cn1nnnc1-c1cccc(Cl)c1Cl,166 to 168
3,CCc1nc2sc3ccccc3n2c1CO,180 to 182
4,C1COC(NC(C2CC2)C2CC2)=N1,105 to 106
5,COc1cc(C2=C(c3cc4ccccc4[nH]3)C(=O)NC2=O)cc(OC)c1OC,252
6,Cc1[nH]c(=O)[nH]c1C(=O)C1CC1,272 to 273
7,CCOC(=O)Cc1ccc(N[C@@H](CCC(N)=O)C(=O)O)cc1,180
8,C1CNCCNCCOCCNCCN1,80 to 81
9,CCCCC(=O)N(Cc1ccc2c(c1)CCc1ccccc1N2CC#N)C(C(=O)O)C(C)C (stereo unspecified),82
10,O=Cc1c[nH]cc1-c1cccc(Cl)c1Cl,152 to 154
11,CSc1nsc(NC(=O)Oc2ccccc2)c1C#N,244 to 245
12,O=C1C=CC(=O)C2=C1OCCO2,156
13,O=C(CCCl)c1ccc(O)c(Cl)c1Cl,109 to 111
14,O=c1c2ccccc2nnn1CCN1CCC(c2c[nH]c3ccccc23)CC1,171
15,Cc1cc(C)nc(S(=O)(=O)c2ccccc2)c1,106 to 107
16,COc1ccc(-c2c(C(=O)O)n(Cc3cc4c(cc3Cl)OCO4)c3ccccc23)cc1,189 to 190
17,COC(=O)COc1cc2c(c3c1c(C(=O)C(N)=O)c(C)n3Cc1cccc(F)c1)CCC2,142 to 144
18,CC(C)(C(=O)O)c1ccc(OC(F)F)cc1,68.5 to 69.5
19,COc1ccc2cccc(C(CNC(=O)CF)COS(C)(=O)=O)c2c1 (stereo unspecified),122 to 124
20,COC(=O)c1cccc(OCc2ccc(Cl)c(Cl)c2)c1,87 to 88
21,CCCn1c(=O)c2c(nc(/C=C/c3cccs3)n2C)n(CCC)c1=O,185 to 186
22,CC(C)Oc1ncc(C#N)c(O)n1,166

row,SMILES,melting point [°C]
1,COc1cc(C=CC(=O)c2ccccc2)cc(C(F)(F)F)c1O,166 to 168
2,CC(=O)/C=C1/C(=O)N(c2ccccc2)C1c1ccccc1 (stereo unspecified),158
3,CCCCCCCCCCCCCCOC(=O)CCC1(CO)CCC(=O)O1 (stereo unspecified),59
4,CNC(=O)c1ccc(Nc2nc(Nc3cc4c(cc3OC)CCN(CC(=O)N(C)C)CC4)ncc2Cl)c(OC)c1,138 to 147
5,Fc1ccc(CN2CCC(Nc3ccc(C(F)(F)F)nn3)CC2)cc1F,168 to 169
6,COc1ccccc1-c1ccc(C(=O)N2Cc3ccc(C(=O)N(C)CC(O)CO)n3Cc3ccccc32)cc1C (stereo unspecified),174 to 184
7,COC(=O)c1nc(I)cc(N)c1Cl,152 to 153
8,CCn1c(=O)n(CCCCC(C)(C)O)c(=O)c2[nH]cnc21,112 to 114
9,C[C@]1(CN2CCN(c3cc(-c4ccccc4)nc(-c4ccccc4)n3)CC2)Cn2cc([N+](=O)[O-])nc2O1,202 to 205
10,NC(=O)C1CCc2[nH]c3cc(Cl)c(Cl)cc3c2C1 (stereo unspecified),199 to 200
11,CNc1nc(Cc2cc(OC)c(OC)c(OC)c2)nc2sc(C#N)c(C)c12,194 to 195
12,CCCCCCC(=N)NC(=S)Nc1ccccc1Cl,75 to 77
13,O=P1(c2ccccc2)OCc2ccccc21 (stereo unspecified),99 to 101
14,COc1cc(CO)cc(OC)c1OCc1nc(-c2ccccc2)oc1C,113 to 114
15,C=C(C)COc1ccc(Br)cc1CN(CC)c1ccc(C(=O)NS(=O)(=O)c2ccccc2)cn1,193
16,O=S(=O)(c1ccc(F)cc1)N1CCCC1c1ccccc1F (racemic),108
17,CN1CCc2c(cccc2NC(=O)c2ccccc2I)C1,215 to 216
18,N#CC(Cc1c[nH]cn1)(c1ccc(Cl)cc1)c1ccc(Cl)cc1,152 to 153
19,CCOC(=O)Cc1ccc(NC2=NN(c3ccc(C)cc3)CC2)cc1,145 to 146
20,COc1ccc2c(c1)c(CC(=O)OCC(=O)O)c(C)n2C(=O)c1ccc(C(F)(F)F)cc1,166 to 167
21,O=C1C(O)=C(c2ccc(Cl)cc2)C(=O)C(O)=C1/C=C/c1ccccc1,258 to 259
22,CC1c2cccc3c2N(CC3)c2ccccc2N1C(=O)CCCCl (stereo unspecified),88 to 90

row,SMILES,melting point [°C]
1,O=C(O)CCCC1Cc2ccc(F)cc2C1=O (stereo unspecified),106 to 107
2,CCCCCCCCCCCCCCOc1ccc(NCc2cccnc2)cc1,75 to 76
3,O=C(/C=C/c1ccc(CN2CCCC2)cc1)Nc1ccc(Br)cc1,184 to 186
4,COc1ccc(-c2cc[nH]c(=O)n2)cc1OC1CC2CCC1C2 (stereo unspecified),220
5,CCn1c(N)c(C(=O)NC)c(=O)c2cnc(-c3ccc(NC(=O)NCc4cccnc4)cc3)nc21,250
6,COc1cc(Cc2cnc(NC(=O)C(C)(C)C)nc2NC(=O)C(C)(C)C)cc(OC)c1OC,153 to 154
7,Clc1nc(Cl)nc(-c2ccccc2)n1,118 to 120
8,C#Cc1ccc(-c2ccc(-c3ccc(C#C)cc3)n2-c2ccc(C)cc2)cc1,235 to 237
9,COc1cc(C)ccc1S(=O)(=O)NC(=O)C(c1cc(OC)c2c(c1)OCO2)c1cn(C)c2cc(CO)ccc12 (stereo unspecified),145 to 147
10,COC(=O)c1cc2c(Cl)cccc2s1,84 to 86
11,Cc1c(Br)cc(NC(=O)c2cccc(CSc3cnccn3)c2)cc1Br,119 to 127
12,Cc1ccc(C=C2CCN(C(=O)c3nc4ccc(O)cc4[nH]3)CC2)cc1,82
13,COc1c(N2CCC(NC(=O)OC(C)(C)C)C2)c(F)cc2c(=O)c(C(=O)O)cn(C3CC3)c12 (stereo unspecified),224 to 226
14,CC[C@H]1CN(c2c(F)c(N)c3c(=O)c(C(=O)O)cn(C4CC4)c3c2F)C[C@H]1CNCCC(=O)C(F)(F)F (relative stereo),145 to 146
15,COc1cc(C)nc2ccc(NC(=O)C=Cc3ccccc3Cl)cc12,228 to 229
16,CC1CCCCC1OC(=O)c1cc(NCSc2ccccc2)ccc1Cl (stereo unspecified),143 to 144
17,COc1cc(OCC2CCCO2)ccc1/C=C/C(=O)CC(=O)/C=C/c1ccc2cc[nH]c2c1 (stereo unspecified),159 to 161
18,CCC1(c2cccc(OC)c2)CCCC(=O)N(C)C1 (stereo unspecified),69 to 71
